Results reported in patent publication US10670605B2, “Cysteine reactive probes and uses thereof” (The Scripps Research Institute, priority 2015, dated 2020).

Legend:
Test in all cases: Competitive isoTOP-ABPP in situ (fragment-treated cells)
Type in all cases: cell-based
[1] = molecular target: T1, cysteines in MDA-MB-231 and Ramos cells (Homo sapiens, UniProt O75521)
T1 sequence (O75521 39-394): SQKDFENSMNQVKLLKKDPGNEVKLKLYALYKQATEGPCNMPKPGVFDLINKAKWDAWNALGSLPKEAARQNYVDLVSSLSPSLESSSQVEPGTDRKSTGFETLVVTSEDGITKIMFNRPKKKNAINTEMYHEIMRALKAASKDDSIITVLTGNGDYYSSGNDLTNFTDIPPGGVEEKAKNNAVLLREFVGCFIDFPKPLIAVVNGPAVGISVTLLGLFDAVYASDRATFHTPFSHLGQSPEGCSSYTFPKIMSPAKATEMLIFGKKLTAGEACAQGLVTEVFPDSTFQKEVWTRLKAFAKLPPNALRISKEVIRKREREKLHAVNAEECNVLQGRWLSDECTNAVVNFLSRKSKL

[2] = molecular target: cysteines in MDA-MB-231 and Ramos cells (Homo sapiens, UniProt P04406)
[3] = molecular target: cysteines in MDA-MB-231 and Ramos cells (Homo sapiens, UniProt P12268)
[4] = molecular target: T2, cysteines in MDA-MB-231 and Ramos cells (Homo sapiens, UniProt P46734)
T2 sequence (P46734 1-347): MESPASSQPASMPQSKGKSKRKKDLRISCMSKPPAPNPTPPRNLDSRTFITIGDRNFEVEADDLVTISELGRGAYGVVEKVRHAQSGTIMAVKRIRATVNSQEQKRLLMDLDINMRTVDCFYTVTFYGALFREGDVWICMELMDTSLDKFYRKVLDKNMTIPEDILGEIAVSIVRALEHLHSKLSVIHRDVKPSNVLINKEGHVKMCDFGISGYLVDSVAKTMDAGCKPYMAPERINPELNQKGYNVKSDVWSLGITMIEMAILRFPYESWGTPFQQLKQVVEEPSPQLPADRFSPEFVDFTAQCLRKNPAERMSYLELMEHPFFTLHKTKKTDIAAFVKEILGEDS

[5] = molecular target: T3, cysteines in MDA-MB-231 and Ramos cells (Homo sapiens, UniProt P51946)
T3 sequence (P51946 1-323): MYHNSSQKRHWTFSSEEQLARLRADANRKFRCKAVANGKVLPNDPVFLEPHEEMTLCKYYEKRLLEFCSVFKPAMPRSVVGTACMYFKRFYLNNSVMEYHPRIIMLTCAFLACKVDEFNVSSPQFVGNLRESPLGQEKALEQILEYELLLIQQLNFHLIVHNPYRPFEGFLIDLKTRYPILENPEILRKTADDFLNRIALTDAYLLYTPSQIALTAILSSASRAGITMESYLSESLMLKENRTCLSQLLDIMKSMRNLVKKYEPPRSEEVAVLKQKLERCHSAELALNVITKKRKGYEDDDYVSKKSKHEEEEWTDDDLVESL

[6] = molecular target: cysteines in MDA-MB-231 and Ramos cells (Homo sapiens, UniProt Q16831)
[7] = molecular target: cysteines in MDA-MB-231 and Ramos cells (Homo sapiens, UniProt Q8TAQ2)
[8] = molecular target: T4, cysteines in MDA-MB-231 and Ramos cells (Homo sapiens, UniProt Q9NRG0)
T4 sequence (Q9NRG0 1-131): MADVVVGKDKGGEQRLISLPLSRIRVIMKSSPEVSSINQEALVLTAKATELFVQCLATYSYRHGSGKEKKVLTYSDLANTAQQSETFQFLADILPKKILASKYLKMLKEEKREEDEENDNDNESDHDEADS

[9] = molecular target: T5, cysteines in MDA-MB-231 and Ramos cells (Homo sapiens, UniProt Q99439)
T5 sequence (Q99439 1-309): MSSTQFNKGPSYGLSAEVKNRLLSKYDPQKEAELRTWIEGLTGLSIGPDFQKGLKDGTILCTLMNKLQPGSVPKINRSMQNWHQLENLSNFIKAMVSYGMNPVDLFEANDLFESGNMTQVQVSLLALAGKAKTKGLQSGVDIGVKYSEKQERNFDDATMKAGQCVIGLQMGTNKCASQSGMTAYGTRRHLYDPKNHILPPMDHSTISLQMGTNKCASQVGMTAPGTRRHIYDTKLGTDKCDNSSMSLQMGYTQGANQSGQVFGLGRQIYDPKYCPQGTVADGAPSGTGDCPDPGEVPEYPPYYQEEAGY

[10] = molecular target: cysteines in MDA-MB-231 and Ramos cells (Homo sapiens, UniProt Q9BUH6); conditions: 200 μM, insitu
cysteines in MDA-MB-231 and Ramos cells (Homo sapiens, UniProt Q9BUH6), sequence (Q9BUH6 whole entry): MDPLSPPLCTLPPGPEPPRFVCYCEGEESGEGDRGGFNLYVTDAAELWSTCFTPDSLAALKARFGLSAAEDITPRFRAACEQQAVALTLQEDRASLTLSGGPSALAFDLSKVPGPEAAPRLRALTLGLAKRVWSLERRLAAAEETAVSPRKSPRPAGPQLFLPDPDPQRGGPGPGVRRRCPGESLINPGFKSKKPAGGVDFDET

cysteines in MDA-MB-231 and Ramos cells (Homo sapiens, UniProt Q16831), sequence (Q16831 whole entry): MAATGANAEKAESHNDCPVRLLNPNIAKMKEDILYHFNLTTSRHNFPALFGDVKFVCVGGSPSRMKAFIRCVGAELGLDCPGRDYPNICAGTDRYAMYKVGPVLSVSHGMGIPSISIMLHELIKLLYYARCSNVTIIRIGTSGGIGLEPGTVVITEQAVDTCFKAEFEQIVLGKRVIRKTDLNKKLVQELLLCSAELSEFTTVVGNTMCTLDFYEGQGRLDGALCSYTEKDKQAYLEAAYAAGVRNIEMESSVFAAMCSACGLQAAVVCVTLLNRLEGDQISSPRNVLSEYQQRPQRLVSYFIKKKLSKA
cysteines in MDA-MB-231 and Ramos cells (Homo sapiens, UniProt Q8TAQ2), sequence (Q8TAQ2 whole entry): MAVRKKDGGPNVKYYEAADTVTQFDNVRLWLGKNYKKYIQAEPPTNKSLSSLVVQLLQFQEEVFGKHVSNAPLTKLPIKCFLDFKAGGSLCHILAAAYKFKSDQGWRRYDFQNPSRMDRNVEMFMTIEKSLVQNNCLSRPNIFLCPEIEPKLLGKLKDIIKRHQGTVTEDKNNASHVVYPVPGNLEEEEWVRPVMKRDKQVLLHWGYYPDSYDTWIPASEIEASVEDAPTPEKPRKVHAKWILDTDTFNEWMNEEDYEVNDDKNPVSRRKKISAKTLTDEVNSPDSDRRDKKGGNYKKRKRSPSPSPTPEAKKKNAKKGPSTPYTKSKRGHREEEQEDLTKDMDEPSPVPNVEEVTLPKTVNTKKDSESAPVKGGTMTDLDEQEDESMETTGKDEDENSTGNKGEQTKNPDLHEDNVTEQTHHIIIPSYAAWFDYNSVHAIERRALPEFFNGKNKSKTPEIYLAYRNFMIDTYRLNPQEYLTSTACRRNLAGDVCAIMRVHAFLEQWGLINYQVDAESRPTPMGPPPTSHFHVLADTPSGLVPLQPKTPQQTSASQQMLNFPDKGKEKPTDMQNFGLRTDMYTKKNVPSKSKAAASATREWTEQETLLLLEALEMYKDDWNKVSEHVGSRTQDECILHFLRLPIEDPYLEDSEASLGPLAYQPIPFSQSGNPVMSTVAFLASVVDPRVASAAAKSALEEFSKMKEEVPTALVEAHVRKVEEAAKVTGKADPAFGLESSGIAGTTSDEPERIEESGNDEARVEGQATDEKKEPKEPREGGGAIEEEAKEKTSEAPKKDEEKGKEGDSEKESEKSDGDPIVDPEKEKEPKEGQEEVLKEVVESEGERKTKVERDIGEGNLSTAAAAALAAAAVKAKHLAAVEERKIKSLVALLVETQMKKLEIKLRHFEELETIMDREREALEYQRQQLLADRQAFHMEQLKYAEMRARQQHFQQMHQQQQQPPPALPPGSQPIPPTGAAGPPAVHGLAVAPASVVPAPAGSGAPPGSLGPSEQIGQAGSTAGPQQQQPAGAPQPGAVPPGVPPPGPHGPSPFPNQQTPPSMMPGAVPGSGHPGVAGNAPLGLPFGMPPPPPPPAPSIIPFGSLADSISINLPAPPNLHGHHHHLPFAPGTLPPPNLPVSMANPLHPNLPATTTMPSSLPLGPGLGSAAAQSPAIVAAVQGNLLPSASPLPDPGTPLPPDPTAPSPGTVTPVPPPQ
cysteines in MDA-MB-231 and Ramos cells (Homo sapiens, UniProt P04406), sequence (P04406 whole entry): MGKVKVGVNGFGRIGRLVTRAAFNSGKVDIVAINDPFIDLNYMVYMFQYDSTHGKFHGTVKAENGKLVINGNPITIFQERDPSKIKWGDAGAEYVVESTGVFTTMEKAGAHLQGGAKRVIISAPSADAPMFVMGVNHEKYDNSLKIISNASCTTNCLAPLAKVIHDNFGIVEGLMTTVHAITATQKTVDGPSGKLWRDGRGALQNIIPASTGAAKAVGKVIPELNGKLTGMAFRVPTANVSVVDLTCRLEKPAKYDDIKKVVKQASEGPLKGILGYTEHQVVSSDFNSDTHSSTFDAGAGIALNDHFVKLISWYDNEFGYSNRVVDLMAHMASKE

Structure (SMILES): CC(C)CCOCCNC(=O)CCl [compound 27]
- isoTOP-ABPP ratio O75521_C312 ([1]; 200 μM, insitu, 231): 1.1
- isoTOP-ABPP ratio O75521_C380 ([1]; 200 μM, insitu, 231): 1.6
- isoTOP-ABPP ratio P04406_C152 ([2]; 200 μM, insitu, 231): 0.5
- isoTOP-ABPP ratio P12268_C140 ([3]; 200 μM, insitu, 231): 0.5
- isoTOP-ABPP ratio P12268_C331 ([3]; 200 μM, insitu, 231): 0.7
- isoTOP-ABPP ratio P46734_C207 ([4]; 200 μM, insitu, 231): 0.8
- isoTOP-ABPP ratio P51946_C244 ([5]; 200 μM, insitu, 231): 1.1
- isoTOP-ABPP ratio Q16831_C162 ([6]; 200 μM, insitu, 231): 0.5
- isoTOP-ABPP ratio Q8TAQ2_C145 ([7]; 200 μM, insitu, 231): 2.1
- isoTOP-ABPP ratio Q9NRG0_C55 ([8]; 200 μM, insitu, 231): 0.9

Structure (SMILES): COc1cc2c(cc1OC)CN(C(=O)CCl)CC2 [compound 8]
- isoTOP-ABPP reactivity O75521_C312 ECI2 ([1]; 200 μM, insitu, 231): 0.5
- isoTOP-ABPP reactivity O75521_C380 ECI2 ([1]; 200 μM, insitu, 231): 0.8
- isoTOP-ABPP reactivity P04406_C152 GAPDH ([2]; 200 μM, insitu, 231): 1.1
- isoTOP-ABPP reactivity P12268_C140 IMPDH2 ([3]; 200 μM, insitu, 231): 0.9
- isoTOP-ABPP reactivity P46734_C207 MAP2K3 ([4]; 200 μM, insitu, 231): 0.8
- isoTOP-ABPP reactivity Q16831_C162 UPP1 ([6]; 200 μM, insitu, 231): 20.0
- isoTOP-ABPP reactivity Q99439_C164 CNN2 ([9]; 200 μM, insitu, 231): 1.1
- isoTOP-ABPP reactivity Q9BUH6_C180 C9orf142 [10]; 231: 6.6
- isoTOP-ABPP reactivity Q9NRG0_C55 CHRAC1 ([8]; 200 μM, insitu, 231): 7.4

Structure (SMILES): O=C(CCl)Nc1cccc2ncccc12 [compound 51]
- isoTOP-ABPP ratio O75521_C380 ([1]; 200 μM, insitu, 231): 1.0
- isoTOP-ABPP ratio P04406_C152 ([2]; 200 μM, insitu, 231): 1.0
- isoTOP-ABPP ratio P12268_C140 ([3]; 200 μM, insitu, 231): 1.0
- isoTOP-ABPP ratio P46734_C207 ([4]; 200 μM, insitu, 231): 0.7
- isoTOP-ABPP ratio P51946_C244 ([5]; 200 μM, insitu, 231): 0.7
- isoTOP-ABPP ratio Q16831_C162 ([6]; 200 μM, insitu, 231): 1.1
- isoTOP-ABPP ratio Q8TAQ2_C145 ([7]; 200 μM, insitu, 231): 1.2
- isoTOP-ABPP ratio Q9NRG0_C55 ([8]; 200 μM, insitu, 231): 1.1

Structure (SMILES): COc1ccccc1OCCNC(=O)CCl [compound 28]
- isoTOP-ABPP ratio O75521_C380 ([1]; 200 μM, insitu, 231): 0.8
- isoTOP-ABPP ratio P04406_C152 ([2]; 200 μM, insitu, 231): 0.8
- isoTOP-ABPP ratio P12268_C140 ([3]; 200 μM, insitu, 231): 0.6
- isoTOP-ABPP ratio P12268_C331 ([3]; 200 μM, insitu, 231): 0.8
- isoTOP-ABPP ratio Q16831_C162 ([6]; 200 μM, insitu, 231): 0.7
- isoTOP-ABPP ratio Q8TAQ2_C145 ([7]; 200 μM, insitu, 231): 0.9
- isoTOP-ABPP ratio Q99439_C164 ([9]; 200 μM, insitu, 231): 0.9
- isoTOP-ABPP ratio Q9BUH6_C180 [10]; 231: 1.1

Structure (SMILES): COc1ccc2c(c1)CCCN2C(=O)CCl [compound 2]
- isoTOP-ABPP reactivity O75521_C312 ECI2 ([1]; 200 μM, insitu, 231): 0.7
- isoTOP-ABPP reactivity O75521_C380 ECI2 ([1]; 200 μM, insitu, 231): 0.6
- isoTOP-ABPP reactivity P04406_C152 GAPDH ([2]; 200 μM, insitu, 231): 20.0
- isoTOP-ABPP reactivity P12268_C140 IMPDH2 ([3]; 200 μM, insitu, 231): 1.3
- isoTOP-ABPP reactivity P12268_C331 IMPDH2 ([3]; 200 μM, insitu, 231): 12.1
- isoTOP-ABPP reactivity P46734_C207 MAP2K3 ([4]; 200 μM, insitu, 231): 0.8
- isoTOP-ABPP reactivity P51946_C244 CCNH ([5]; 200 μM, insitu, 231): 1.9
- isoTOP-ABPP reactivity Q16831_C162 UPP1 ([6]; 200 μM, insitu, 231): 1.2
- isoTOP-ABPP reactivity Q8TAQ2_C145 SMARCC2 ([7]; 200 μM, insitu, 231): 4.6
- isoTOP-ABPP reactivity Q9NRG0_C55 CHRAC1 ([8]; 200 μM, insitu, 231): 20.0

Structure (SMILES): C=CC(=O)N(Cc1cccnc1)c1cc(C(F)(F)F)cc(C(F)(F)F)c1 [compound 31]
- isoTOP-ABPP ratio P04406_C152 ([2]; 200 μM, insitu, 231): 0.8
- isoTOP-ABPP ratio P04406_C152 ([2]; 200 μM, insitu, ramos): 1.0
- isoTOP-ABPP ratio P12268_C140 ([3]; 200 μM, insitu, 231): 0.6
- isoTOP-ABPP ratio P12268_C331 ([3]; 200 μM, insitu, 231): 1.0
- isoTOP-ABPP ratio P12268_C140 ([3]; 200 μM, insitu, ramos): 1.0
- isoTOP-ABPP ratio P12268_C331 ([3]; 200 μM, insitu, ramos): 1.1
- isoTOP-ABPP ratio Q8TAQ2_C145 ([7]; 200 μM, insitu, 231): 0.8
- isoTOP-ABPP ratio Q8TAQ2_C145 ([7]; 200 μM, insitu, ramos): 1.1
- isoTOP-ABPP ratio Q99439_C164 ([9]; 200 μM, insitu, 231): 0.7
- isoTOP-ABPP ratio Q99439_C164 ([9]; 200 μM, insitu, ramos): 1.3
- isoTOP-ABPP ratio Q9BUH6_C180 [10]; 231: 0.8
- isoTOP-ABPP ratio Q9NRG0_C55 ([8]; 200 μM, insitu, ramos): 1.6

Structure (SMILES): Cn1cc(S(=O)(=O)N2CCOCC2)cc1C(=O)NC(=O)CCl [compound 11]
- isoTOP-ABPP ratio O75521_C380 ([1]; 100 μM in situ 231): 0.8
- isoTOP-ABPP ratio P04406_C152 ([2]; 100 μM in situ 231): 0.8
- isoTOP-ABPP ratio P12268_C140 ([3]; 100 μM in situ 231): 0.6
- isoTOP-ABPP ratio P12268_C331 ([3]; 100 μM in situ 231): 1.0
- isoTOP-ABPP ratio P46734_C207 ([4]; 100 μM in situ 231): 0.6
- isoTOP-ABPP ratio P51946_C244 ([5]; 100 μM in situ 231): 1.3
- isoTOP-ABPP ratio Q16831_C162 ([6]; 100 μM in situ 231): 0.8
- isoTOP-ABPP ratio Q8TAQ2_C145 ([7]; 100 μM in situ 231): 7.6
- isoTOP-ABPP ratio Q99439_C164 ([9]; 100 μM in situ 231): 0.6
- isoTOP-ABPP ratio Q9NRG0_C55 ([8]; 100 μM in situ 231): 1.1

Structure (SMILES): O=C(CCl)N1CCN(CC(=O)N2CCOCC2)CC1 [compound 29]
- isoTOP-ABPP ratio O75521_C380 ([1]; 200 μM, insitu, ramos): 1.2
- isoTOP-ABPP ratio P04406_C152 ([2]; 200 μM, insitu, ramos): 1.2
- isoTOP-ABPP ratio P12268_C140 ([3]; 200 μM, insitu, ramos): 1.6
- isoTOP-ABPP ratio P12268_C331 ([3]; 200 μM, insitu, ramos): 1.3
- isoTOP-ABPP ratio P51946_C244 ([5]; 200 μM, insitu, ramos): 1.1
- isoTOP-ABPP ratio Q8TAQ2_C145 ([7]; 200 μM, insitu, ramos): 2.7
- isoTOP-ABPP ratio Q99439_C164 ([9]; 200 μM, insitu, ramos): 1.0
- isoTOP-ABPP ratio Q9BUH6_C180 ([10]; ramos): 1.5
- isoTOP-ABPP ratio Q9NRG0_C55 ([8]; 200 μM, insitu, ramos): 1.5

Structure (SMILES): O=C(CCl)NC12CC3CC(CC(C3)C1)C2 [compound 21]
- isoTOP-ABPP ratio O75521_C312 ([1]; 200 μM, insitu, 231): 1.6
- isoTOP-ABPP ratio O75521_C380 ([1]; 200 μM, insitu, 231): 1.8
- isoTOP-ABPP ratio P04406_C152 ([2]; 200 μM, insitu, 231): 1.3
- isoTOP-ABPP ratio P12268_C140 ([3]; 200 μM, insitu, 231): 0.6
- isoTOP-ABPP ratio P12268_C331 ([3]; 200 μM, insitu, 231): 0.8
- isoTOP-ABPP ratio P46734_C207 ([4]; 200 μM, insitu, 231): 0.9
- isoTOP-ABPP ratio P51946_C244 ([5]; 200 μM, insitu, 231): 1.4
- isoTOP-ABPP ratio Q16831_C162 ([6]; 200 μM, insitu, 231): 1.6
- isoTOP-ABPP ratio Q8TAQ2_C145 ([7]; 200 μM, insitu, 231): 1.6
- isoTOP-ABPP ratio Q99439_C164 ([9]; 200 μM, insitu, 231): 0.9
